Assays:
HIV protease = HIV protease (Human immunodeficiency virus type 1 group M subtype B, UniProt P04585); experiment: Fluorogenic assay for screening inhibitors of HIV protease; format: biochemical; settings: Inhibitor Concentration 0.5 nanomolar
Procedure: Fluorogenic Assay for Screening Inhibitors of HIV Protease
The inhibitory potency of the compound of the invention can be determined by the following method.
The compound of the invention is dissolved in DMSO and a small aliquot further diluted with DMSO to 100 times the final concentration desired for testing. The reaction is carried out in a 6×50 mm tube in a total volume of 300 microliters. The final concentrations of the components in the reaction buffer are: 125 mM sodium acetate, 1 M sodium chloride, 5 mM dithiothreitol, 0.5 mg/ml bovine serum albumin, 1.3 μM fluorogenic substrate, 2% (v/v) dimethylsulfoxide, pH 4.5. After addition of inhibitor, the reaction mixture is placed in the fluorometer cell holder and incubated at 30° C. for several minutes. The reaction is initiated by the addition of a small aliquot of cold HIV protease. The fluorescence intensity (excitation 340 nm, emmision 490 nM) is recorded as a function of time. The reaction rate is determined for the first six to eight minutes. The observed rate is directly proportional to the moles of substrate cleaved-per unit time. The percent inhibition is 100×(1−(rate in presence of inhibitor)/(rate in absence of inhibitor)).
Fluorogenic substrate: Dabcyl-Gaba-Ser-Gln-Asn-Tyr-Pro-lle-Val-Gln-EDANS wherein DABCYL=4-(4-dimethylamino-phenyl)azobenzoic acid, Gaba=γ-aminobutyric acid, and EDANS=5-((2-aminoethyl)amino)-naphthalene-1-sulfonic acid.

HIVIIIB = experiment: Anti-HIV activity in MT4 cells infected with HIVIIIB (MTT readout); format: cell-based; settings: 0% plasma, 5 days, n=4 duplicate determinations
Source text: (§1) The anti-HIV activity of the compound of the invention can be determined in MT4 cells according to the following procedure. MT4 cells were infected with cell-free supernatant of HIVIIIB (previously frozen with known 50% tissue culture infectious dose (TCID50) at 0.003 multiplicity of infection (MOI) for one hour. After one hour infection, cells were washed twice to remove residual viruses, resuspended in culture media and seeded into 96-well tissue culture plates at 1×10^4 cells per well with various half-log dilutions of compounds. Uninfected cells are included as toxicity and cell controls. RPMI 1640 media (Gibco) with 10% fetal bovine serum were used as culture media. Various concentrations of human serum (Sigma) 50%, 25% and 12.5% were added to culture media resulting in final concentration of 60%, 35% and 22.5% total serum. All assay plates were incubated in 37 deg. cent. incubator for 5 days. MTT (sigma, 5 mg/ml stock in PBS) was added to all wells at 25 ul per well, incubate for 4 hours. 20% SDS with 0.02 N HCI in water was added at 50 ul per well to lyse cells. Plates incubated overnight for complete lyses were read on a microtitre plate reader at 570/650 nm wavelengths to determine cell optical density (O.D.). Raw data were analysed for percent inhibition by the following formula: O.D. test well−O.D. virus control×100 O.D. cell control−O.D. virus control The 50% effective concentration (EC50) was calculated by the median effect equation (Chou, 1975, Proc. Int. Cong. Pharmacol. 6th p. 619) to determine the efficacy of compound. The 50% lethal concentration (LC50) was calculated using uninfected MT4 cells.
(§2) Under these conditions, the following data were obtained (n=4 duplicate determinations: […]

uninfected MT4 cells = format: cell-based; settings: n=4 duplicate determinations, read-out: LC50 (the source's name)
Source text: as §1, §2

Structure (SMILES) | Percent Inhibition (HIV protease) | IC50 (HIVIIIB) | CC50 (uninfected MT4 cells)
Cc1cccc(C)c1OCC(=O)N[C@@H](Cc1ccccc1)[C@@H](O)C[C@H](Cc1ccccc1)NC(=O)[C@H](C(C)C)N1CC=NNC1=O [Example 30B, (2S,3S,5S)-2-(2,6-Dimethylphenoxyacetyl)amino-3-hydroxy-5[2S-(4-aza-4,5-dehydro-1-pyrimid-2-onyl)-3-methyl-butanoyl]amino-1,6-diphenylhexane] | 91.0% | 0.003 µM | 18000 nM
Cc1cccc(C)c1OCC(=O)N[C@@H](Cc1ccccc1)[C@@H](O)C[C@H](Cc1ccccc1)NC(=O)[C@H](C(C)C)N1CCNC1=S [Example 9B, (2S,3S,5S)-2-(2,6-Dimethylphenoxyacetyl)amino-3-hydroxy-5-(2S-(1-imidazolidin-2-thionyl)-3-methylbutanoyl)amino-1,6-diphenylhexane] | 62.6% | 0.272 µM | 19300 nM
Cc1cccc(C)c1OCC(=O)N[C@@H](Cc1ccccc1)[C@@H](O)C[C@H](Cc1ccccc1)NC(=O)[C@H](C(C)C)N1CCCNC1=O [Example 2B, (2S,3S,5S)-2-(2,6-Dimethylphenoxyacetyl)amino-3-hydroxy-5-[2S-(1-tetrahydro-pyrimid-2-onyl)-3-methylbutanoyl]amino-1,6-diphenylhexane] | 93.2% | 0.016 µM | 17800 nM
Cc1cccc(C)c1/C=C/C(=O)N[C@@H](Cc1ccccc1)[C@@H](O)C[C@H](Cc1ccccc1)NC(=O)[C@H](C(C)C)N1CCCNC1=O (relative stereo) [Example 19E] | 68.5% | 0.395 µM | 18000 nM
Cc1cccc(C)c1OCC(=O)N[C@@H](Cc1ccccc1)[C@@H](O)C[C@H](Cc1ccccc1)NC(=O)[C@H](C(C)C)N1C(=O)CCC1=O [Example 18C, (2S,3S,5S)-2-(2,6-Dimethylphenoxyacetyl)amino-3-hydroxy-5-(2S-(1-pyrrolidin-2,5-dionyl)-3-methyl-butanoyl)amino-1,6-diphenylhexane] | 57.8% | 0.329 µM | 19100 nM
Cc1cccc(C)c1OCC(=O)N[C@@H](Cc1ccccc1)[C@@H](O)C[C@H](NC(=O)[C@H](C(C)C)N1CCCNC1=O)C(C)C [Example 27D, (2S,3S,5S)-2-(2,6-Dimethylphenoxyacetyl)amino-3-hydroxy-5-[2S-(1-tetrahydro-pyrimid-2-onyl)-3-methylbutanoyl]amino-1-phenyl-6-methylheptane] | 92.9% | 0.03 µM | 56200 nM
Cc1cccc(C)c1OCC(=O)N[C@@H](Cc1ccccc1)[C@@H](O)C[C@H](Cc1ccccc1)NC(=O)[C@H](C(C)C)N1CCNC(=O)C1=O [Example 29C, (2S,3S,5S)-2-(2,6-Dimethylphenoxyacetyl)amino-3-hydroxy-5-[2S-(1-piperazin-2,3-dionyl)-3-methylbutanoyl]amino-1,6-diphenylhexane] | 72.6% | 0.427 µM | 56000 nM
CC(C)[C@@H](C(=O)N[C@@H](Cc1ccccc1)C[C@H](O)[C@H](Cc1ccccc1)NC(=O)O[C@H]1CO[C@H]2OCC[C@H]21)N1CCNC1=O [Example 5, (2S,3S,5S)-2-[(3R,3aS,6aR)-Bis-tetrahydrofuranyloxy]amino-3-hydroxy-5-[2S-(1-imidazolidin-2-onyl)-3-methylbutanoyl]amino-1,6-diphenylhexane] | 80.8% | 0.368 µM | > 100000 nM
Cc1cc(C)c(OCC(=O)N[C@@H](Cc2ccccc2)[C@@H](O)C[C@H](Cc2ccccc2)NC(=O)[C@H](C(C)C)N2CCNC2=O)c(C)c1 [Example 11B, (2S,3S,5S)-2-(2,4,6-Trimethylphenoxyacetyl)amino-3-hydroxy-5-(2S-(1-imidazolidin-2-onyl)-3-methylbutanoyl)amino-1,6-diphenylhexane] | 91.1% | 0.19 µM | 18200 nM
Cc1cccc(C)c1OCC(=O)N[C@@H](Cc1ccccc1)[C@@H](O)C[C@H](NC(=O)[C@H](C(C)C)N1CCC(=O)NC1=O)C(C)C [Example 28, (2S,3S,5S)-2-(2,6-Dimethylphenoxyacetyl)amino-3-hydroxy-5-[2S-(1-tetrahydro-pyrimid-2,4-dionyl)-3-methylbutanoyl]amino-1-phenyl-6-methylheptane] | 86.6% | 0.011 µM | 72200 nM
CC(C)[C@@H](C(=O)N[C@@H](Cc1ccccc1)C[C@H](O)[C@H](Cc1ccccc1)NC(=O)OCc1cncs1)N1CCNC1=O [Example 6F, (2S,3S,5S)-2-(N-((5-Thiazolyl)methoxycarbonyl)amino)-5-((2S-(1-imidazolidin-2-onyl)-3-methyl-butanoyl)-amino)-3-hydroxy-1,6-diphenylhexane] | 61.4% | 0.193 µM | > 100000 nM
Cc1cc(F)cc(C)c1OCC(=O)N[C@@H](Cc1ccccc1)[C@@H](O)C[C@H](Cc1ccccc1)NC(=O)[C@H](C(C)C)N1CCNC1=O [Example 12B, (2S,3S,5S)-2-(4-Fluoro-2,6-dimethylphenoxyacetyl)amino-3-hydroxy-5-(2S-(1-imidazolidin-2-onyl)-3-methyl-butanoyl)amino-1,6-diphenylhexane] | 76.8% | 0.093 µM | 19100 nM
Cc1ccnc(C)c1OCC(=O)N[C@@H](Cc1ccccc1)[C@@H](O)C[C@H](Cc1ccccc1)NC(=O)[C@@H](N1CCNC1=O)C(C)(C)C [Example 14D, (2S,3S,5S)-2-(2,4-Dimethyl-pyridin-3-oxy-acetyl)amino-3-hydroxy-5-(2S-(1-imidazolidin-2-onyl)-3,3-dimethylbutanoyl)amino-1,6-diphenylhexane] | 52.7% | 0.053 µM | > 100000 nM
Cc1cccc(C)c1OCC(=O)N[C@@H](Cc1ccccc1)[C@@H](O)C[C@H](Cc1ccccc1)NC(=O)[C@H](C(C)C)N1CCOC1=O [Example 3C, (2S,3S,5S)-2-(2,6-Dimethylphenoxyacetyl)amino-3-hydroxy-5-[2S-(3-oxazolidin-2-onyl)-3-methyl-butanoyl]amino-1,6-diphenylhexane] | 86.9% | 0.025 µM | 49500 nM
Cc1cccc(C)c1OCC(=O)N[C@@H](Cc1ccccc1)[C@@H](O)C[C@H](Cc1ccccc1)NC(=O)[C@H](C(C)C)N1CCCC1=O [Example 17C, (2S,3S,5S)-2-(2,6-Dimethylphenoxyacetyl)amino-3-hydroxy-5-(2S-(1-pyrrolidin-2-onyl)-3-methyl-butanoyl)amino-1,6-diphenylhexane] | 87.2% | 0.051 µM | 19000 nM
Cc1cccc(C)c1OCC(=O)N[C@@H](Cc1ccccc1)[C@@H](O)C[C@H](Cc1ccccc1)NC(=O)[C@H](C(C)C)N1CCNC1=O [Example 1P, (2S,3S,5S)-2-(2,6-dimethylphenoxyacetyl)amino-3-hydroxy-5-[2S-(1-imidazolidin-2-onyl)-3-methyl-butanoyl]amino-1,6-diphenylhexane] | 92.6% | 0.01 µM | 41300 nM
Cc1cccc(C)c1OCC(=O)N[C@@H](Cc1ccccc1)[C@@H](O)C[C@H](Cc1ccccc1)NC(=O)[C@H](C(C)C)N1CCNNC1=O [Example 26H, (2S,3S,5S)-2-(2,6-Dimethylphenoxyacetyl)amino-3-hydroxy-5[2S-(4-aza-1-tetrahydro-pyrimid-2-onyl)-3-methyl-butanoyl]amino-1,6-diphenylhexane] | 94.6% | 0.015 µM | 33000 nM
CC(C)(C)[C@@H](C(=O)N[C@@H](Cc1ccccc1)C[C@H](O)[C@H](Cc1ccccc1)NC(=O)OCc1cncs1)N1CCNC1=O [Example 7B, (2S,3S,5S)-2-(N-((5-Thiazolyl)-methoxycarbonyl)amino)-3-hydroxy-5-(2S-(1-imidazolidin-2-onyl)-3,3-dimethylbutanoyl)amino-1,6-diphenylhexane] | 67.1% | 0.204 µM | > 100000 nM

From patent US7279582B2, “Retroviral protease inhibiting compounds” (priority 1995, dated 2007)
